Results from patent publication US6673834B2, “Hydroperylene derivatives” (priority 2001, dated 2004).
pIC50: −log10 of the molar value. Where two headings read alike, the source gives them in different places.

Assays:
[1] = tested on: thrombocytes; test: Test for inhibition of thrombocyte aggregation (turbidimetric, Born; aggregometer PAP 4); format: cell-based; conditions: read-out: IC50 (platelet aggregation)
From the text: The inhibition of platelet aggregation can be measured, inter alia, by determining platelet aggregation turbimetrically as described by Born (Born, GV, Nature, 1962,194: 927-929).
(§1) Principle of the test: the method is based on the property that the optical density of a particle suspension depends on the […]. After a platelet suspension has been stimulated, the platelets begin to aggregate. This leads to the appearance of relatively large platelet aggregates and to an increase in light transmission. This increase is registered photometrically, and recorded in curve form, continuously. The degrees to which the thrombocytes can be aggregated, or to which this aggregation can be inhibited, can be deduced from the changes in light transmission. The method of staining cells with calcein was used for determining cytotoxicity (Hollo Z et al., Biochim Biophys Acta 11;1191(2):384-8, 1994). Living cells incorporate the substrate calcein acetoxymethyl ester (C-AM), which is hydrolyzed in the cells by nonspecific esterases. […] In the living cell, it is converted into the fluorescent hydrolysis product and the vitality of the cells can be measured on the basis of the fluorescence (λex:485 nm/λem:538 nm).
By way of example, Table 2 summarizes the inhibitory effects of some hydroperylene derivatives as IC50 values. The IC50 value indicates the concentration which inhibits thrombocyte aggregation by 50% under defined conditions.
Test for Inhibition of Thrombocyte Aggregation
The assay was carried out as follows:
Final concentration of activator: 0.05 U of thrombin/ml or 1 μg of collagen/ml
Aggregation in Aggregometer (PAP 4)
Cell number, 3×10^5 thrombocytes/μl
The blank value for the channels of the aggregometer is first of all adjusted using buffer. The thrombocytes are then pipetted into microtubes and, after the thrombocytes have been added, heated at 37° C. for a few minutes in the aggregometer. After a magnetic stirrer has been added to each reaction tube, the substances, and CaCl2, are added and a start is made in recording the course of the curve in the aggregometer. After 2 minutes of incubation, the activator, or buffer in the case of the control, is added. The course of the curve is then recorded for a further 6 min at 37° C. and at a stirrer speed of 1050 revolutions per minute.

[2] = tested on: cells; test: Cytotoxicity by staining cells with calcein (calcein AM fluorescence); format: cell-based; conditions: read-out: IC50 (toxicity)
From the text: as §1

[3] = Solubility of thioperylenol; format: physicochemical
From the text: (§2) The physicochemical and spectroscopic properties of thioperylenol can be summarized as follows:
(§3) Brownish crystals which are soluble in medium-polar and polar organic solvents and soluble in aqueous neutral buffers. Stable in neutral and mildly acidic, non-oxidizing medium but unstable in strongly acidic and strongly alkaline solution.

[4] = Stability of thioperylenol in solution; format: physicochemical
From the text: as §2, §3

[5] = cell toxicity, calcein AM staining
[6] = concentration which inhibits thrombocyte aggregation by 50%, activator 0.05 U of thrombin/ml or 1 μg of collagen/ml, 37° C.

| Molecule | pIC50 [2, 5] | pIC50 [1, 6] | other results |
| --- | --- | --- | --- |
| O=C1CC(SCC(O)C(=O)O)[C@]2(O)c3c(ccc(O)c31)-c1ccc(O)c3c1C2C1OC1C3O (some centres unmarked) [Thioperylenol, thioperylenol] | 4.21 | – | pIC50 ([1]; Platelet, concentration which inhibits thrombocyte aggregation by 50%, activator 0.05 U of thrombin/ml or 1 μg of collagen/ml, 37° C.): 5.14; Solubility ([3]; aqueous neutral buffers): soluble; Solubility ([3]; medium-polar and polar organic solvents): soluble; Stability ([4]; neutral and mildly acidic, non-oxidizing medium): Stable; Stability ([4]; strongly acidic and strongly alkaline solution): unstable |
| O=C1C[C@H](O)[C@@H]2c3c(ccc(O)c31)-c1ccc(O)c3c1[C@@]2(O)CCC3=O [Altertoxin I] | < 4.00 | 4.54 | – |
| Altertoxin III | 4.70 | 5.21 | – |
| O=C1C[C@@H](O)[C@H]2c3c(ccc(O)c31)-c1ccc(O)c3c1[C@]2(O)C=CC3=O (stereo in doubt) [Alterperylenol] | – | – | pIC50 ([1]; Platelet): 5.80; pIC50 [2]: < 4.00 |
| O=C1CCC2(O)c3c(ccc(O)c31)-c1ccc(O)c3c1C2C1OC1C3=O (centres unmarked) [Altertoxin II] | 5.00 | 5.59 | – |
